In assay [1] the test system is human CRP. Kind of assay: Basal plasma human CRP in hCRPtg mice (ELISA). The format is in vivo. Particulars: 80 mg/kg/d by gavage for ten days, before treatment 0.619. Here is the method:
hCRPtg were treated for 10d with M16αα (80 mg/kg/d) dissolved in 1% CMC and administered by gavage. Plasma basal CRP was determined before and at the end of treatment by ELISA.
Unlike human CRP, mouse CRP is not an acute-phase reactant, and is synthesized hi trace amounts only. However, male hCRP transgene mice (hCRPtg), having the human CRP gene flanked by most of human CRP promoter integrated in their genome, constitutively produce human CRP, with serum levels ranging between 10 and 20 μg/mL.
(§1) Therefore, hCRPtg mice were treated for ten days with M16αα (80 mg/kg/d) dissolved in 1% CMC and administered by gavage. Plasma CRP was determined by ELISA at the beginning and at the end of treatment. […] The inventors further examined the effect of the MEDICA drugs on LPS-induced CRP. Therefore, CRP expression was analyzed in hCRPtg mice treated with M16αα 0.06% (W/W) (about 60 mg/kg body weight/day) for fourteen days and challenged with LPS (25 μg/mice) for the last 18 h. As illustrated by the histogram of FIG. 25, treatment with M16αα decreases LPS-induced levels of human CRP.
(An ELISA detects its analyte on a solid surface through an enzyme-linked reagent.)

Another assay has as its system gp130 transcript. Kind of assay: gp130 transcript levels in HepG2 cells (real time RT-PCR). Type of assay: cell-based, human. The conditions noted are these: 200 μM up to 40 h (2, 4, 8, 24, 40 h), normalized with GAPDH. Here is the method:
As shown by FIGS. 5-7, treatment of M16αα results in reduction in the protein levels of gp130, which is the tyrosine kinase receptor upstream to STAT3 in this pathway. The inventors thus next examined whether M16αα affects gp130 at the transcription level. Therefore, HepG2 cells were incubated with M16αα (200 μM) for up to 40 h. Total RNA was prepared at 2 h, 4 h, 8 h, 24 h and 40 h, and gp130 transcription was analyzed by real time RT-PCR and normalized with GAPDH.
(In general: Real-time PCR tracks product formation cycle by cycle.)

Assay [2] has as its system human CRP. Kind of assay: LPS-induced human CRP in hCRPtg mice. Type of assay: in vivo. The conditions noted are these: 0.06% (W/W) (about 60 mg/kg body weight/day) for fourteen days, LPS 25 μg/mice last 18 h. The protocol: The effect of M16αα in decreasing human CRP induced by LPS injection was analyzed in hCRPtg mice treated with M16αα for 14 days and challenged with LPS.
as §1

The test system of a further assay is STAT3. Kind of assay: STAT3 phosphorylation in MM U266 cells (Western blot). Type of assay: cell-based. Particulars: 200 μM, RPMI 1640, 10% FCS. Here is the method:
(§2) U266 cells were cultured with 200 μM M16αα for time periods as indicated, lysed, Western blotted and reacted with anti STAT3, p-STAT3 (Y705), PARP or Bcl-xL antibodies.
(§3) To examine the possibility that the inhibitory effect of M16αα, on Multiple Myeloma may be mediated by enhancement of pro apoptotic mechanism and induction of cell cycle arrest, U266 cells were cultured with 200 μM M16αα in RPMI 1640 medium with 10% FCS for time periods as indicated, lysed, Western blotted and reacted with anti STAT3, p-STAT3 (Y705), PARP or Bcl-xL and Bcl-2 as indicated.

The subject of assay [3] is Experimental Autoimmune Encephalomyelitis (EAE). Kind of assay: EAE (MOG35-55) model for MS, clinical score. The format is in vivo, female C57BL/6 mice. Particulars: for day of fully established EAE: control day 24.
Assay [4] deals with HT29 colon cancer cells. Kind of assay: HT29 cell number, trypan blue exclusion assay. The format is cell-based. Particulars: 200 μM, days 1, 2, 3 and 6. Here is the method: Abbreviations: D. (days) cont, (control), RCN (relative cell number).
(§4) Cells were cultured in Dulbecco's Modified Eagle Medium (DMEM) supplemented with 10% fetal calf serum, glutamine and antibiotics (100,000 units/L penicillin and 100 mg/L streptomycin sulfate).
(§5) The involvement of MEDICA drugs in signal transduction pathways related to immuno-modulatory mechanisms have led the inventors to further investigate the effect of the MEDICA drugs in different disorders associated with abnormal immune reaction. Since cancerous processes may be promoted as a result of interruption of the Th1/Th2 balance, the possible beneficial effect of the MEDICA drugs on tumor proliferation and progression have been next examined. The effect of different concentrations M16αα on cell proliferation was first examined in vitro using the HT29 colon cancer cells as a model for colon cancer. Cells were cultured in the presence of different concentrations of M16αα (50, 100, and 200 μM). Samples obtained from days 1, 2, 3 and 6 were analyzed for cell number using the trypan blue exclusion assay. Proliferation was measured by BrdU incorporation assay.

The subject of a further assay is gp130. Kind of assay: Overexpressed gp130 protein levels in transfected Hek293 cells (Western blot). The format is cell-based. The conditions noted are these: Hek293 transfected with gp130 expression vector; 200 mM M16αα 9 h, 20 h after transfection. The protocol: Hek293 cells were transfected with an expression vector for gp130. Following 20 h M16αα ([…]) was added for 9 h. Western blots of cell lysates were reacted with anti gp130 antibodies and normalized by β-actin. Abbreviations: cont. (control).
In order to examine the mode of action of M16αα in reducing gp130 protein levels, Hek293 cells were transfected with an expression vector for the gp130 protein. Following 20 h after transfection, M16αα ([…]) was added for 9 h. Western blots of cells lysates were reacted with anti-gp130 antibodies and normalized by β-actin. […] This effect was clearer when smaller amounts of plasmid were used for transfection (0.2 microgram).
(In general: Immunoblotting shows a protein as a band on a membrane.)

Assay [5] deals with HT29 colon cancer cells. Kind of assay: BrdU incorporation assay in HT29 colon cancer cells. The conditions noted are these: 200 μM. Type of assay: cell-based. The protocol:
as §4, §5

For another assay, the system named is U266 cells. Kind of assay: Apoptosis markers (PARP, Bcl-2, Bcl-xL) in MM U266 cells (Western blot). Type of assay: cell-based. The conditions noted are these: 200 μM. Here is the method:
as §2, §3

On to `CC(C)(CCCCCCCCCCCCC(C)(C)C(=O)O)C(=O)O` [M16αα, 2,2,15,15-tetramethyl-hexadecanedioic acid], for which the “basal levels of human CRP in plasma at the end of treatment” value with human CRP [1] is 0.396. The gp130 transcript levels result with gp130 transcript was “remained unaffected”. Moreover, in the assay on human CRP [2], the “LPS-induced levels of human CRP” value is on record as “decreases”. Also, the “STAT3 phosphorylation (p-STAT3 Y705)” value in the assay with STAT3 is given as “clear reduction”. In addition, the “average maximal clinical score” value in assay [3] (Preventive Group A: 30 mg/kg BW daily from three days prior to MOG challenge to day 37, control group D 4.3) stood at 1.3; in assay [3] (group B: 30 mg/kg BW daily from seventh day following MOG injection to day 52, control group D 4.3), 4.3; in [3] (group C: 30 mg/kg BW daily from first day to day 52, control group D 4.3) it was 3.8. Also, the “average maximal clinical score upon termination of treatment” value in assay [3] (Preventive Group A: after termination of treatment (vehicle day 37 to day 52), control group D 4.3) is listed as approximately 2.0. The “day of fully established EAE” value in assay [3] (group B: 30 mg/kg BW daily from seventh day to day 52) and in assay [3] (group C: 30 mg/kg BW daily from first day to day 52) was 40 days in each case. For the same compound, the “cell number (relative cell number)” value in the assay on HT29 colon cancer cells [4] is reported as “significant reduction”. Further, the “gp130 protein levels (overexpressed)” value in the assay on gp130 is on record as “clear reduction”. The BrdU incorporation entry in the assay with HT29 colon cancer cells [5] is recorded as “significantly reduces”. In addition, in the assay with U266 cells, the “anti-apoptotic markers (Bcl-2, Bcl-xL)” value was “concomitant decrease”. Further, the “cleavage of PARP” value in the assay on U266 cells (compared to control cells) is recorded as “enhancement”.

(Values after patent US20100113599A1, “AMPHIPATHIC CARBOXYLATES FOR THE TREATMENT OF IMMUNE-RELATED DISORDERS” (Syndromex Ltd. c/o Yissum Research Development Company, of, priority 2007, published 2010).)
